The text below walks through data of US12180215B2, “Substituted pyrrolo[3,4-d]imidazoles as JAK inhibitors” (HENAN MEDINNO PHARMACEUTICAL TECHNOLOGY CO., LTD., priority 2019, dated 2024).

SMILES strings stand for the structures.

For one test, the target named is T1, TYK2 (Homo sapiens, UniProt P29597).
T1 sequence (P29597 871-1187 limits assumed): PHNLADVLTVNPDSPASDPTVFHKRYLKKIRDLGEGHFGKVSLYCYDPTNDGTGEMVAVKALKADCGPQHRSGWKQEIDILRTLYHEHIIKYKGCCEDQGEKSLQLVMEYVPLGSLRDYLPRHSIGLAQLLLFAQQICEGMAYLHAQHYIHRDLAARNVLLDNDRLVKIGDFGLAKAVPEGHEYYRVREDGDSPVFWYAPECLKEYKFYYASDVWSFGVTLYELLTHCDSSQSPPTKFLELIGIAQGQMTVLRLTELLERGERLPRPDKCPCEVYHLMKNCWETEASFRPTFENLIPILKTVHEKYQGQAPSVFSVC
As to the kind of experiment: TYK2 kinase ADP-Glo assay (Example 60). On the technique in general: ADP-Glo first removes unused ATP, then detects ADP through luciferase.

The next test has as its target JAK2 (Homo sapiens, UniProt O60674). As to the kind of experiment: JAK2 kinase ADP-Glo assay (Example 60).
The target in a further test is JAK3 (Homo sapiens, UniProt P52333). The test is described as follows: JAK3 kinase ADP-Glo assay (Example 60).
Sequence of JAK3 (P52333 795-1124 limits assumed): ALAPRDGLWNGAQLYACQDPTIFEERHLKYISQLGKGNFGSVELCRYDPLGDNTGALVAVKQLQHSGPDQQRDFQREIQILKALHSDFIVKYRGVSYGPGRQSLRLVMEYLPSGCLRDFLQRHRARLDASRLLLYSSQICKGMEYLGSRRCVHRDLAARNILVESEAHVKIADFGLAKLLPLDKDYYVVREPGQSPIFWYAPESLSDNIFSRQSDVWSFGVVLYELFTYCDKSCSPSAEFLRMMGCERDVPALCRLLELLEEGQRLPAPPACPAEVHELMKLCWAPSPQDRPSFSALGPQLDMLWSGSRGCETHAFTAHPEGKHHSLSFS
For a further test, the target named is JAK1 (Homo sapiens, UniProt P23458). As to the kind of experiment: JAK1 kinase ADP-Glo assay (Example 60).
Sequence of JAK1 (P23458 850-1154 limits assumed): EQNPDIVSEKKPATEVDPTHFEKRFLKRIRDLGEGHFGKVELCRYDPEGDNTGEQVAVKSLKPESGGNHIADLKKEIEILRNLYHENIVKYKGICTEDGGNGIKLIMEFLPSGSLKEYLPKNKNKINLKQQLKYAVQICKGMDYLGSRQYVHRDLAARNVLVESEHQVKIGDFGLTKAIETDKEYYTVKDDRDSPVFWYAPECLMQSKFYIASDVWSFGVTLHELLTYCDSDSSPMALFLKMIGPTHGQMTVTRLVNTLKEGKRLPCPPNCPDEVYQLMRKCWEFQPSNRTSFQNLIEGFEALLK

Sequence of JAK2 (O60674 826-1132 limits assumed): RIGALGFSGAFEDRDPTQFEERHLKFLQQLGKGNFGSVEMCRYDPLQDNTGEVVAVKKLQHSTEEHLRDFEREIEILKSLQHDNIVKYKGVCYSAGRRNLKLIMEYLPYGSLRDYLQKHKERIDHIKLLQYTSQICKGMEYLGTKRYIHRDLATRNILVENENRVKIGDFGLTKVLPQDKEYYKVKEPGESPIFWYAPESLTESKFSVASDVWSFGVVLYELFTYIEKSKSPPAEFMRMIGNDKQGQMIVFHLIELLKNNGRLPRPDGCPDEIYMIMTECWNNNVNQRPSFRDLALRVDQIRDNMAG

Broadly, the IC50 is the concentration at which inhibition is half-maximal. Consider `CCc1cc(O)c(F)cc1-c1ccc2c(-c3nc4c([nH]3)CN(CC3CC3)C4)n[nH]c2c1` [MDI-208, 4-(3-(5-(cyclopropylmethyl)-1,4,5,6-tetrahydropyrrolo[3,4-d]imidazol-2-yl)-1H-indazol-6-yl)-5-ethyl-2-fluorophenol], for which the IC50 at TYK2 stood at 9310 pM; at JAK2 it was 440 pM; on JAK3, 1110 pM; against JAK1 it was 153 pM.

For the molecule `CCc1cc(O)c(F)cc1-c1ccc2c(-c3nc4c([nH]3)CN(CC3CCC3)C4)n[nH]c2c1` [MDI-210, 4-(3-(5-(cyclobutylmethyl)-1,4,5,6-tetrahydropyrrolo[3,4-d]imidazol-2-yl)-1H-indazol-6-yl)-5-ethyl-2-fluorophenol], the IC50 against TYK2 is 31500 pM; at JAK2, 1110 pM; against JAK3 it was 979 pM; at JAK1, 347 pM.

As to `CCc1cc(O)c(F)cc1-c1ccc2c(-c3nc4c([nH]3)CN(C(=O)c3ccnnc3)C4)n[nH]c2c1` [MDI-214, (2-(6-(2-ethyl-5-fluoro-4-hydroxyphenyl)-1H-indazol-3-yl)-pyrrolo[3,4-d]imidazol-5-(1H,4H,6H)-yl)(pyridazin-4-yl)ketone], the IC50 against TYK2 is 2800 pM; at JAK2 it was 273 pM; against JAK3 it was 352 pM; against JAK1, 303 pM.

Turning to `CCc1cc(O)c(F)cc1-c1ccc2c(-c3nc4c([nH]3)CN(C(=O)c3cccnn3)C4)n[nH]c2c1` [MDI-215, (2-(6-(2-ethyl-5-fluoro-4-hydroxyphenyl)-1H-indazol-3-yl)-pyrrolo[3,4-d]imidazol-5-(1H,4H,6H)-yl)(pyridazin-3-yl)ketone], the IC50 on TYK2 was determined as 1580 pM; on JAK2 it was 277 pM; against JAK3, 308 pM; at JAK1, 197 pM.

Consider `CCc1cc(O)c(F)cc1-c1ccc2c(-c3nc4c([nH]3)CN(C(=O)N3CC[C@H](O)C3)C4)n[nH]c2c1` [MDI-216, (S)-(2-(6-(2-ethyl-5-fluoro-4-hydroxyphenyl)-1H-indazol-3-yl)-4,6-dihydropyrrolo[3,4-d]imidazol-5-(1H)-yl)(3-hydroxylpyrrolidin-1-yl)ketone], for which the IC50 was determined as 1620 pM at TYK2, 233 pM at JAK2, 247 pM at JAK3 and 134 pM on JAK1.

As to `CCc1cc(O)c(F)cc1-c1ccc2c(-c3nc4c([nH]3)CN(S(=O)(=O)C3CC3)C4)n[nH]c2c1` [MDI-218, 4-(3-(5-(cyclopropanesulfonyl)-1,4,5,6-tetrahydropyrrolo[3,4-d]imidazol-2-yl)-1H-indazol-6-yl)-5-ethyl-2-fluorophenol], the IC50 turned out to be 1750 pM on TYK2, 614 pM at JAK2, 948 pM against JAK3 and 825 pM against JAK1.

On to `CCc1cc(O)c(F)cc1-c1ccc2c(-c3nc4c([nH]3)CN(S(=O)(=O)C3CCC3)C4)n[nH]c2c1` [MDI-219, 4-(3-(5-(cyclobutylsulfonyl)-1,4,5,6-tetrahydropyrrolo[3,4-d]imidazol-2-yl)-1H-indazol-6-yl)-5-ethyl-2-fluorophenol], for which the IC50 turned out to be 1880 pM on TYK2, 1380 pM on JAK2, 2290 pM on JAK3 and 1380 pM against JAK1.

Turning to `CCc1cc(O)c(F)cc1-c1ccc2c(-c3nc4c([nH]3)CN(S(=O)(=O)C3CCCC3)C4)n[nH]c2c1` [MDI-220, 4-(3-(5-(cyclopentylsulfonyl)-1,4,5,6-tetrahydropyrrolo[3,4-d]imidazol-2-yl)-1H-indazol-6-yl)-5-ethyl-2-fluorophenol], the 50% inhibitory concentration (IC50) at TYK2 worked out at 5560 pM; at JAK2, 1380 pM; against JAK3, 3150 pM; against JAK1, 2020 pM.

On to `CCc1cc(O)c(F)cc1-c1ccc2c(-c3nc4c([nH]3)CN(Cc3cnn(C)c3)C4)n[nH]c2c1` [MDI-221, 5-ethyl-2-fluoro-4-(3-(5-((1-methyl-1H-pyrazol-4-yl)methyl)-1,4,5,6-tetrahydropyrrolo[3,4-d]imidazol-2-yl)-1H-indazol-6-yl)phenol], for which the IC50 against TYK2 came to 7600 pM; against JAK2, 363 pM; at JAK3, 379 pM; on JAK1, 128 pM.

For the molecule `CCc1cc(O)c(F)cc1-c1ccc2c(-c3nc4c([nH]3)CN(C3CCCC3)C4)n[nH]c2c1` [MDI-224, 4-(3-(5-cyclopentyl-1,4,5,6-tetrahydropyrrolo[3,4-d]imidazol-2-yl)-1H-indazol-6-yl)-5-ethyl-2-fluorophenol], the concentration for half-maximal inhibition (IC50) at TYK2 amounted to 16100 pM; on JAK2, 754 pM; against JAK3, 2010 pM; on JAK1, 248 pM.

With `CCc1cc(O)c(F)cc1-c1ccc2c(-c3nc4c([nH]3)CN(C3CCOCC3)C4)n[nH]c2c1` [MDI-225, 5-ethyl-2-fluoro-4-(3-(5-(tetrahydro-2H-pyran-4-yl)-1,4,5,6-tetrahydropyrrolo[3,4-d]imidazol-2-yl)-1H-indazol-6-yl)phenol], the IC50 against TYK2 came out at 3500 pM; against JAK2 it was 390 pM; against JAK3 it was 487 pM; against JAK1 it was 226 pM.

Take `CCC(=O)N1Cc2nc(-c3n[nH]c4cc(-c5cc(F)c(O)cc5CC)ccc34)[nH]c2C1` [MDI-227, 1-(2-(6-(2-ethyl-5-fluoro-4-hydroxyphenyl)-1H-indazol-3-yl)-4,6-dihydropyrrolo[3,4-d]imidazol-5-(1H)-yl)propan-1-one]: the IC50 amounted to 3890 pM against TYK2, 246 pM against JAK2, 441 pM at JAK3 and 224 pM against JAK1.

With `CCc1cc(O)c(F)cc1-c1ccc2c(-c3nc4c([nH]3)CN(C(=O)C(C)C)C4)n[nH]c2c1` [MDI-228, 1-(2-(6-(2-ethyl-5-fluoro-4-hydroxyphenyl)-1H-indazol-3-yl)-4,6-dihydropyrrolo[3,4-d]imidazol-5-(1H)-yl)-2-methylpropan-1-one], the IC50 is 4760 pM against TYK2, 355 pM against JAK2, 565 pM against JAK3 and 398 pM against JAK1.

As to `CCc1cc(O)c(F)cc1-c1ccc2c(-c3nc4c([nH]3)CN(C(=O)CC3CC3)C4)n[nH]c2c1` [MDI-229, 2-cyclopropyl-1-(2-(6-(2-ethyl-5-fluoro-4-hydroxyphenyl)-1H-indazol-3-yl)-4,6-dihydropyrrolo[3,4-d]imidazol-5-(1H)-yl)ethan-1-one], the IC50 against TYK2 was 4710 pM; against JAK2 it was 356 pM; at JAK3 it was 481 pM; against JAK1 it was 753 pM.

In the case of `CCc1cc(O)c(F)cc1-c1ccc2c(-c3nc4c([nH]3)CN(C(=O)CC(C)C)C4)n[nH]c2c1` [MDI-230, 1-(2-(6-(2-ethyl-5-fluoro-4-hydroxyphenyl)-1H-indazol-3-yl)-4,6-dihydropyrrolo[3,4-d]imidazol-5-(1H)-yl)-3-methylbutan-1-one], the IC50 at TYK2 stood at 6570 pM; on JAK2, 555 pM; on JAK3, 821 pM; on JAK1, 819 pM.

`CCc1cc(O)c(F)cc1-c1ccc2c(-c3nc4c([nH]3)CN(C(=O)N3CCCC3)C4)n[nH]c2c1` [MDI-231, (2-(6-(2-ethyl-5-fluoro-4-hydroxyphenyl)-1H-indazol-3-yl)-4,6-dihydropyrrolo[3,4-d]imidazol-5-(1H)-yl)(pyrrolidin-1-yl)ketone]: the 50% inhibitory concentration (IC50) was determined as 1310 pM at TYK2, 1170 pM against JAK2, 893 pM against JAK3 and 530 pM against JAK1.

In the case of `CCc1cc(O)c(F)cc1-c1ccc2c(-c3nc4c([nH]3)CN(C(=O)N3CCC3)C4)n[nH]c2c1` [MDI-232, Azetidin-1-yl(2-(6-(2-ethyl-5-fluoro-4-hydroxyphenyl)-1H-indazol-3-yl)-4,6-dihydropyrrolo[3,4-d]imidazol-5-(1H)-yl)ketone], the IC50 at TYK2 is 2260 pM; at JAK2, 1040 pM; against JAK3, 868 pM; against JAK1, 745 pM.

In the case of `CCc1cc(O)c(F)cc1-c1ccc2c(-c3nc4c([nH]3)CN(C(=O)N3CCCCC3)C4)n[nH]c2c1` [MDI-233, (2-(6-(2-ethyl-5-fluoro-4-hydroxyphenyl)-1H-indazol-3-yl)-4,6-dihydropyrrolo[3,4-d]imidazol-5-(1H)-yl)(piperidin-1-yl)ketone], the IC50 amounted to 3500 pM against TYK2, 1330 pM against JAK2, 2600 pM on JAK3 and 1310 pM on JAK1.

On to `CCc1cc(O)c(F)cc1-c1ccc2c(-c3nc4c([nH]3)CN(C(=O)N3CCOCC3)C4)n[nH]c2c1` [MDI-234, (2-(6-(2-ethyl-5-fluoro-4-hydroxyphenyl)-1H-indazol-3-yl)-4,6-dihydropyrrolo[3,4-d]imidazol-5-(1H)-yl)(morpholino)ketone], for which the IC50 at TYK2 was 438 pM; at JAK2, 737 pM; on JAK3, 375 pM; against JAK1 it was 206 pM.

For the molecule `CCc1cc(O)c(F)cc1-c1ccc2c(-c3nc4c([nH]3)CN(C(=O)N3CC[C@H](O)C3)C4)n[nH]c2n1` [MDI-255, (S)-(2-(6-(2-ethyl-5-fluoro-4-hydroxyphenyl)-1H-pyrazolo[3,4-b]pyridine-3-yl)-4,6-dihydropyrrolo[3,4-d]imidazol-5(1H)-yl)(3-hydroxylpyrrolidin-1-yl)ketone], the IC50 came out at 37400 pM at JAK2 and 57200 pM against JAK1.
